Structures are written as SMILES.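 Compound exposure: 48 hours, 5 concentrations, 96-well plates. GI50 marks 50% less growth. TGI: total growth inhibition.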

The values that follow come from PubChem BioAssay (NCI).

Test systems include UACC-257 melanoma; MOLT-4 leukemia; HCT-116 colon; CAKI-1 renal; CCRF-CEM leukemia; 786-0 renal; TK-10 renal; SW-620 colon; DU-145 prostate; A498 renal.
Holding throughout (assay): NCI anticancer screen, dose series, 48 h

As for `O=C1C(Cl)=C(Oc2ccccc2)C(=O)c2ccccc21`, the GI50 with UACC-257 melanoma was 4.65 µM; in the assay with MOLT-4 leukemia it was 4.09 µM; in the assay on HCT-116 colon it was 1.82 µM; in the assay on CAKI-1 renal, 1.8 µM; with CCRF-CEM leukemia, 2.23 µM; with 786-0 renal, 15.6 µM. Also, the GI50 in the assay on TK-10 renal was 1.87 µM; with SW-620 colon, 1.81 µM; in the assay with DU-145 prostate, 16.2 µM; in the assay on A498 renal, 9.24 µM. The TGI in the assay with UACC-257 melanoma is 14.1 µM; in the assay with MOLT-4 leukemia it was 30.7 µM; in the assay on HCT-116 colon it was 3.41 µM; with CAKI-1 renal, 4.03 µM; in the assay on CCRF-CEM leukemia it was 8.32 µM; in the assay on 786-0 renal, 29.1 µM. The TGI in the assay on TK-10 renal came to 3.41 µM; in the assay on SW-620 colon, 3.57 µM; in the assay on DU-145 prostate it was 31 µM; with A498 renal, 22.6 µM.

With `CCOC(=O)Oc1c(OC)cc(C(=O)c2ccc(OC)c(OC(=O)CCl)c2OC)cc1OC`, the GI50 in the assay on UACC-257 melanoma is 66.6 µM; with MOLT-4 leukemia it was 0.994 µM; with HCT-116 colon, 0.494 µM; in the assay on CAKI-1 renal, 3.76 µM; with CCRF-CEM leukemia, 0.662 µM; with 786-0 renal it was 3.45 µM. In addition, the GI50 in the assay on TK-10 renal was more than 100 µM; in the assay on SW-620 colon, 0.455 µM; with DU-145 prostate, 1.83 µM; in the assay with A498 renal, 3 µM. The TGI in the assay on UACC-257 melanoma is more than 100 µM; in the assay on MOLT-4 leukemia, more than 100 µM; in the assay with HCT-116 colon, 36.2 µM; in the assay on CAKI-1 renal, more than 100 µM; with CCRF-CEM leukemia, more than 100 µM; in the assay with 786-0 renal, more than 100 µM. Also, the TGI is more than 100 µM with TK-10 renal, more than 100 µM with SW-620 colon, more than 100 µM in the assay with DU-145 prostate and 16.6 µM in the assay with A498 renal.

Regarding `CC(C)(C)[Si](C)(C)OC1[C@@H](O[Si](C)(C)C(C)(C)C)[C@@H](CNC(=O)NC(=O)NC(=O)CI)O[C@H]1n1cnc2c(NC(=O)Nc3ccccc3)ncnc21` (stereo partly drawn), the GI50 in the assay on UACC-257 melanoma is 7.42 µM; in the assay on MOLT-4 leukemia, 0.718 µM; in the assay on HCT-116 colon, 2.82 µM; in the assay with CAKI-1 renal, 0.0966 µM; in the assay with CCRF-CEM leukemia, 0.0301 µM; in the assay on 786-0 renal, 0.357 µM. The GI50 with TK-10 renal was 0.21 µM; in the assay with SW-620 colon, 3.38 µM; in the assay with DU-145 prostate, 8.67 µM; with A498 renal, 3.61 µM. In addition, the TGI turned out to be 16.7 µM with UACC-257 melanoma; 3.12 µM with MOLT-4 leukemia; 9.08 µM in the assay on HCT-116 colon; 0.406 µM with CAKI-1 renal; 0.102 µM in the assay with CCRF-CEM leukemia; 1.08 µM in the assay with 786-0 renal. Moreover, the TGI in the assay on TK-10 renal amounted to 1.05 µM; in the assay with SW-620 colon it was 12.6 µM; with DU-145 prostate, 20 µM; with A498 renal it was 11.4 µM.

For the compound `Clc1ccc(N2COOC3(OOC2)C2CC4CC(C2)CC3C4)cc1`, the GI50 was more than 54.4 µM in the assay on UACC-257 melanoma; 3.82 µM in the assay on MOLT-4 leukemia; 4.1 µM in the assay on HCT-116 colon; 0.299 µM in the assay with CAKI-1 renal; 2.81 µM in the assay with CCRF-CEM leukemia; 1.21 µM in the assay with 786-0 renal. In addition, the GI50 is 4.98 µM in the assay on TK-10 renal, 8.83 µM in the assay with DU-145 prostate and 11.9 µM in the assay on A498 renal. In addition, the TGI was more than 100 µM with UACC-257 melanoma; more than 50.7 µM in the assay on MOLT-4 leukemia; more than 50.2 µM in the assay with HCT-116 colon; 19.5 µM in the assay with CAKI-1 renal; 5.73 µM in the assay on 786-0 renal; 10.5 µM with TK-10 renal. Further, the TGI with SW-620 colon is more than 57.8 µM; in the assay with DU-145 prostate, more than 89 µM; in the assay on A498 renal, more than 100 µM.

For `O=C1CC2(CCCc3sccc32)C(=O)N1` (stereo not drawn), the TGI in the assay on UACC-257 melanoma, with MOLT-4 leukemia, in the assay with HCT-116 colon, with CAKI-1 renal, with CCRF-CEM leukemia and with 786-0 renal was more than 100 µM throughout. Further, the TGI in the assay with TK-10 renal, in the assay with SW-620 colon, in the assay on DU-145 prostate and in the assay on A498 renal was more than 100 µM in each case.

In the case of `Clc1ccc(Nc2ccnc(NCCNc3ccnc4cc(Cl)ccc34)n2)cc1`, the GI50 is 1.68 µM in the assay on UACC-257 melanoma; 1.49 µM with MOLT-4 leukemia; 0.522 µM in the assay on HCT-116 colon; 1.59 µM with CAKI-1 renal; 1.01 µM with CCRF-CEM leukemia; 1.62 µM in the assay on 786-0 renal. The GI50 in the assay on TK-10 renal is 1.76 µM; with SW-620 colon it was 1.14 µM; in the assay with DU-145 prostate, 1.59 µM; in the assay on A498 renal, 1.13 µM. In addition, the TGI with UACC-257 melanoma amounted to 3.17 µM; in the assay with MOLT-4 leukemia, 3.55 µM; with HCT-116 colon, 2.12 µM; in the assay on CAKI-1 renal, 3.01 µM; in the assay with CCRF-CEM leukemia it was 2.62 µM; in the assay on 786-0 renal it was 3.44 µM. Also, the TGI in the assay with TK-10 renal was 3.17 µM; in the assay with SW-620 colon, 2.64 µM; in the assay on DU-145 prostate it was 2.97 µM; with A498 renal, 2.39 µM.

`Nc1nc(SCC(=O)O)[nH]c(=O)c1N`: the TGI is more than 100 µM with UACC-257 melanoma; more than 100 µM in the assay with MOLT-4 leukemia; more than 100 µM with HCT-116 colon; more than 100 µM in the assay on CAKI-1 renal; 7.24 µM in the assay on CCRF-CEM leukemia; more than 100 µM in the assay on 786-0 renal. Also, the TGI in the assay on TK-10 renal, in the assay on SW-620 colon, in the assay on DU-145 prostate and in the assay with A498 renal was more than 100 µM each time.
